# Test results published in article PMC7159882, “Polyunsaturated fatty acid analogues differentially affect cardiac NaV, CaV, and KV channels through unique mechanisms” (eLife, 2020).
# Several values for one entry are separate records, joined by “and”; a condition that tells them apart may be missing. Equal values may be shown once.
# Tests used:
# [1] = target: T1, Cav1.2/β3/α2δ (Homo sapiens, UniProt Q13936); experiment: Two-electrode voltage clamp of Cav1.2/β3/α2δ expressed in Xenopus oocytes (Ba2+ as charge carrier); assay type: cell-based; settings: for ICa I/I0: relative current at 0 mV
# T1 construct: expressed in transfected cells; host or cells: Xenopus laevis oocytes (cRNA injection, Cav1.2:β3:α2δ 2:1:1 by weight)
# Method: (§1) Molecular Biology cRNA encoding Kv7.1 (UniProt: P51787), KCNE1 (UniProt: P15382.1), Nav1.5 (UniProt: Q14524.1), Nav β1 (UniProt: […]), Nav β3 (UniProt: […]), Cav1.2 (GenBank: CAA84346), Cav β3 (Uniprot: P54286), Cav β2 (Uniprot: P54288), and Cav α2δ (Uniprot: P13806) were transcribed using the mMessage mMachine T7 kit (Ambion). 50 ng of cRNA was injected into defolliculated Xenopus laevis oocytes (Ecocyte, Austin, TX): For Kv7.1/KCNE1 channel expression, we injected a 3:1, weight:weight (Kv7.1:KCNE1) cRNA ratio. For Nav1.5 channel expression, we injected a 2:1, weight:weight (Nav1.5:β1) cRNA ratio. For Cav1.2 channel expression, we injected a 2:1:1, weight:weight (Cav1.2:β3:α2δ) cRNA ratio. The exact stoichiometry for channel macromolecular complexes, including α -subunits and auxiliary subunits is not clear for many ion channels. For example, there have been multiple reported stoichiometries for Kv7.1:KCNE1 determined in heterologous expression systems with some groups reporting flexible stoichiometry of 4 Kv7.1: 1–4 KCNE1 and others reporting a fixed stoichiometry of 4 Kv7.1: 2 KCNE1 ([Murray et al., 2016]; [Nakajo et al., 2010]). The ratios of cRNA of α- and auxiliary subunits that we injected in Xenopus laevis oocytes are such that all α-subunits are assumed to be in complex with auxiliary subunits. This allows a more homogenous population of ion channels with auxiliary subunits. One caveat to expressing ion channels as macromolecular complexes is that there are many other auxiliary subunits that could associate with the channel α -subunit that are present in cardiomyocytes and have the potential to alter PUFA-induced effects, but that are not being co-expressed in our experiments. In this work, we are co-expressing some of the auxiliary subunits that have been primarily reported to associate with their respective α -subunits in cardiomyocytes. Following cRNA injection, cells were incubated for 72–96 hr in standard ND96 solution (96 mM NaCl, 2 mM KCl, 1 mM MgCl2, 1.8 mM CaCl2, 5 mM HEPES; pH = 7.5) containing 1 mM pyruvate at 16°C prior to electrophysiological recordings.
# (§2) Xenopus laevis oocytes were recorded in the two-electrode voltage clamp (TEVC) configuration. Recording pipettes were filled with 3 M KCl. The recording chamber was filled with ND96 (96 mM NaCl, 2 mM KCl, 1 mM MgCl2, 1.8 mM CaCl2, 5 mM HEPES; pH 7.5). For Cav1.2/β3/α2δ channel recordings, Xenopus oocytes were injected with 50 nl of 100 mM EGTA and incubated at 10°C for 30 min prior to electrophysiological recordings in order to sequester cytosolic calcium. In addition, Cav1.2/β3/α2δ channel recordings were done in Ca^2+-free solutions, using Ba^2+ as the charge carrier, to prevent calcium-dependent inactivation of Cav1.2/β3/α2δ channels. Calcium-dependent inactivation was not studied in this work, due to the presence of large calcium-activated chloride currents present in Xenopus laevis oocytes. PUFAs were obtained from Cayman Chemical (Ann Arbor, MI.) or synthesized in house (Linköping, Sweden) through methods previously described ([Bohannon et al., 2020]) and kept at −20 °C as 100 mM stock solutions in ethanol. Serial dilutions of the different PUFAs were prepared from stocks to make 0.2 μM, 0.7 μM, 2 μM, 7 μM, and 20 μM concentrations in ND96 solutions (pH = 7.5). PUFAs were perfused into the recording chamber using the Rainin Dynamax Peristaltic Pump (Model RP-1) (Rainin Instrument Co., Oakland, CA. USA).
# (§3) Electrophysiological recordings were obtained using Clampex 10.3 software (Axon, pClamp, Molecular Devices). To measure Kv7.1/KCNE1 currents we apply PUFAs as the membrane potential is stepped every 30 s from −80 mV to 0 mV for 5 s before stepping to −40 mV and back to −80 mV to ensure that the PUFA effects on the current at 0 mV reached steady state. A voltage-step protocol was used to measure the current vs. voltage (I-V) relationship before PUFA application and after the PUFA effects had reached steady state for each concentration of PUFA. […]
# [2] = target: T2, Nav1.5/β1 (Homo sapiens, UniProt Q14524); experiment: Two-electrode voltage clamp of Nav1.5/β1 expressed in Xenopus oocytes; assay type: cell-based; settings: for INa I/I0: relative current at 0 mV
# T2 construct: Nav1.5 (UniProt: Q14524.1); expressed in transfected cells; host or cells: Xenopus laevis oocytes (cRNA injection, Nav1.5:β1 2:1 by weight)
# T2 sequence (Q14524 whole entry): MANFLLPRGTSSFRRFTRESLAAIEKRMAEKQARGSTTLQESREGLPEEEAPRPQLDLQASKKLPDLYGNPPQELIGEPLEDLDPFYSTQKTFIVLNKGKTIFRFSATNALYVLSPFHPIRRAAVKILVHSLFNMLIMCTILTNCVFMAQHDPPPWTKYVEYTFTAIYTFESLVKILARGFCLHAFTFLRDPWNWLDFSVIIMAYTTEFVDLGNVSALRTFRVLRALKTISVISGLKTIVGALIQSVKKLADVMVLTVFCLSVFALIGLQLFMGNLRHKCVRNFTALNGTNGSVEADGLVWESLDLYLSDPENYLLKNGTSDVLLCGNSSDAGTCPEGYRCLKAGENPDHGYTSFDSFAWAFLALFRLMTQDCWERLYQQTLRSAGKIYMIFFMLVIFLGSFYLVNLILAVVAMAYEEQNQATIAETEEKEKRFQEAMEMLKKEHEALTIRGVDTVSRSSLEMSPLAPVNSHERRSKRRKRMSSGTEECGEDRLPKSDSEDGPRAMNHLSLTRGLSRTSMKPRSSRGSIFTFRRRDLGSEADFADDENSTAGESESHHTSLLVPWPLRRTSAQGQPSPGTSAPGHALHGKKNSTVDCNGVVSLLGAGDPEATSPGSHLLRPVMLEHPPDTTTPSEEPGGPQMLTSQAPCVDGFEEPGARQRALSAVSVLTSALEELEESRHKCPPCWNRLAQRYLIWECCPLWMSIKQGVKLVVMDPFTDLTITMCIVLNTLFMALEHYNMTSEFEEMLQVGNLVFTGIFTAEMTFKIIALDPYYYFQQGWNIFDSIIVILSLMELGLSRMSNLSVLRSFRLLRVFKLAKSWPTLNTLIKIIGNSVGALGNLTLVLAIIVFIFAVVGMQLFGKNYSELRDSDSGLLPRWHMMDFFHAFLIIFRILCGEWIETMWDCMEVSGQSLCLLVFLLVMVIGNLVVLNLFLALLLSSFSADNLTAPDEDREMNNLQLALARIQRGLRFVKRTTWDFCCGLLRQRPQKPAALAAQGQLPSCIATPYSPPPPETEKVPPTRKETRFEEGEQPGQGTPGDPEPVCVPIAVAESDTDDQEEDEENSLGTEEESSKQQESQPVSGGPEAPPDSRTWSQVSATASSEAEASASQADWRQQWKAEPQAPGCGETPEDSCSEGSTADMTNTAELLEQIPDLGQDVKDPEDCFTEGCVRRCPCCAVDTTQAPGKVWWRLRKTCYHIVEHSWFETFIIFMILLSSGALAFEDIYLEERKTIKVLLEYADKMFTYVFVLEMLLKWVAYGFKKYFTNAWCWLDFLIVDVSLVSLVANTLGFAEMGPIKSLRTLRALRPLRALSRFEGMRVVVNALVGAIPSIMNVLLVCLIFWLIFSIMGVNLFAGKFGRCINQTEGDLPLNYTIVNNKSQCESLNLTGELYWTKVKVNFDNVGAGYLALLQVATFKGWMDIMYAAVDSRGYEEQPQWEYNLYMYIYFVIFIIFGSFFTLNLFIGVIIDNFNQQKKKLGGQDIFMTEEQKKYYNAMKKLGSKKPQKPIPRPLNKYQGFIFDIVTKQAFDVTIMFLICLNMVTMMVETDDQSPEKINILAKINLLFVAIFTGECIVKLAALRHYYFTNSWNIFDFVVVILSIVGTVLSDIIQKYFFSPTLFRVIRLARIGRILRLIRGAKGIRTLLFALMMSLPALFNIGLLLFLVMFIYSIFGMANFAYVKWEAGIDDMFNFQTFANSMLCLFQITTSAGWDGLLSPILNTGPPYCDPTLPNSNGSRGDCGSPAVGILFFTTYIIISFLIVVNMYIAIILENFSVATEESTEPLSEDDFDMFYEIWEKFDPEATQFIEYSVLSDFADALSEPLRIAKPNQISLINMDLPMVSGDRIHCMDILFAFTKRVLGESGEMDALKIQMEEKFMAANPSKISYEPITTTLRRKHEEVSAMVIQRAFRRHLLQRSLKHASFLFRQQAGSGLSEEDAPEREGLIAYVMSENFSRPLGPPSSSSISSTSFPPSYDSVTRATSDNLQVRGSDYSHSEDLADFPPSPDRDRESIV
# T2 sequence (Q07699 19-218 partner): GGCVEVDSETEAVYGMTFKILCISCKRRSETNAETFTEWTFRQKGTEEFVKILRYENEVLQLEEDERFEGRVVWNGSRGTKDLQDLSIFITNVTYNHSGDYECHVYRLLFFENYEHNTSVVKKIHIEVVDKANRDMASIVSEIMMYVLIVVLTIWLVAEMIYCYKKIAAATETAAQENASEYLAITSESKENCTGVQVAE
# Method: as §1, §2, §3
# [3] = tested on: Herg channels; set-up: method as in B.H. Bentzen and H. Duff, unpublished data; settings: up to 10 μM; heterologous systems; ref B.H. Bentzen and H. Duff, unpublished data; cited from earlier work
SMILES,Gmax/Gmax0 ([1]; 0.2 μM),ΔV0.5 (voltage dependence of inactivation) ([1]; 0.2 μM),ICa I/I0 ([1]; 0.2 μM),Gmax/Gmax0 ([1]; 0.7 μM),ΔV0.5 (voltage dependence of inactivation) ([1]; 0.7 μM),ICa I/I0 ([1]; 0.7 μM),Gmax/Gmax0 ([1]; 2 μM),ΔV0.5 (voltage dependence of inactivation) ([1]; 2 μM),ICa I/I0 ([1]; 2 μM),Gmax/Gmax0 ([1]; 7 μM),ΔV0.5 (voltage dependence of inactivation) ([1]; 7 μM),Gmax/Gmax0 ([1]; 20 μM),ΔV0.5 (voltage dependence of inactivation) ([1]; 20 μM),ICa I/I0 ([1]; 20 μM),Gmax/Gmax0 ([2]; 0.2 μM),ΔV0.5 (voltage dependence of inactivation) ([2]; 0.2 μM),INa I/I0 ([2]; 0.2 μM),Gmax/Gmax0 ([2]; 0.7 μM),ΔV0.5 (voltage dependence of inactivation) ([2]; 0.7 μM),INa I/I0 ([2]; 0.7 μM),other results
"CC/C=C\C/C=C\C/C=C\C/C=C\C/C=C\C/C=C\CCC(=O)NCC(=O)O [DHA-glycine, docosahexaenoyl glycine]",1.0 ± 0.1,6.1 ± 3.5 mV,0.9 ± 0.1,1.1 ± 0.1,6.4 ± 4.3 mV,1.0 ± 0.1,1.1 ± 0.1,6.1 ± 4.2 mV,0.9 ± 0.1,1.0 ± 0.1,7.6 ± 3.1 mV,1.0 ± 0.1,5.2 ± 4.4 mV,0.9 ± 0.1,1.0 ± 0.02,0.3 ± 0.1 mV,1.0 ± 0.02,1.0 ± 0.03,-0.2 ± 0.6 mV,1.0 ± 0.04,Gmax/Gmax0 ([2]; 2 μM): 1.0 ± 0.04; ΔV0.5 (voltage dependence of inactivation) ([2]; 2 μM): -0.3 ± 0.5 mV; INa I/I0 ([2]; 2 μM): 1.1 ± 0.05; Gmax/Gmax0 ([2]; 7 μM): 1.0 ± 0.04; ΔV0.5 (voltage dependence of inactivation) ([2]; 7 μM): −2.4 ± 0.6 mV and -2.4 ± 0.7 mV; Gmax/Gmax0 ([2]; 20 μM): 0.5 ± 0.1; ΔV0.5 (voltage dependence of inactivation) ([2]; 20 μM): -11.5 ± 1.7 mV; INa I/I0 ([2]; 20 μM): 0.7 ± 0.1; effects on currents through Herg channels [3]: neither N-AT nor DHA-glycine up to 10 μM had any significant effects
"CCCCC/C=C\C/C=C\C/C=C\C/C=C\CCCC(=O)NCCS(=O)(=O)O [N-AT, N-arachidonoyl taurine]",0.9 ± 0.02,0.4 ± 0.3 mV,0.9 ± 0.1,0.9 ± 0.1,0.5 ± 1.0 mV,0.9 ± 0.1,0.8 ± 0.03,0.2 ± 2.2 mV,0.9 ± 0.1,0.7 ± 0.1,0.6 ± 2.0 mV,0.6 ± 0.03,1.4 ± 1.7 mV,0.7 ± 0.1,1.0 ± 0.04,-0.2 ± 0.5 mV,1.0 ± 0.09,1.0 ± 0.06,0.2 ± 1.4 mV,1.0 ± 0.07,Gmax/Gmax0 ([2]; 2 μM): 0.7 ± 0.03; ΔV0.5 (voltage dependence of inactivation) ([2]; 2 μM): -5.2 ± 0.4 mV; INa I/I0 ([2]; 2 μM): 0.7 ± 0.08; Gmax/Gmax0 ([2]; 7 μM): 0.3 ± 0.04; ΔV0.5 (voltage dependence of inactivation) ([2]; 7 μM): –16.7 ± 3.5 mV; Gmax/Gmax0 ([2]; 20 μM): 0.07 ± 0.01; ΔV0.5 (voltage dependence of inactivation) ([2]; 20 μM): -27.5 ± 2.9 mV; INa I/I0 ([2]; 20 μM): 0.1 ± 0.02; effects on currents through Herg channels [3]: neither N-AT nor DHA-glycine up to 10 μM had any significant effects
CCCCC/C=C\C/C=C\CC/C=C\CCCC(=O)NCC(=O)O [Pin-glycine],0.9 ± 0.1,-3.2 ± 3.0 mV,0.7 ± 0.1,0.9 ± 0.1,-3.3 ± 3.4 mV,0.8 ± 0.1,0.9 ± 0.1,-4.3 ± 4.1 mV,0.8 ± 0.1,0.8 ± 0.1,−3.1 ± 4.2 mV,0.7 ± 0.2,-3.4 ± 5.6 mV,0.6 ± 0.2,1.0 ± 0.03,0.4 ± 0.3 mV,1.1 ± 0.05,1.0 ± 0.03,0.4 ± 0.6 mV,1.1 ± 0.1,"Gmax/Gmax0 ([1]; 7 μM, listed as pin-glycine): 0.8 ± 0.2; ΔV0.5 (voltage dependence of inactivation) ([1]; 7 μM, listed as pin-glycine): -3.1 ± 4.2 mV; ICa I/I0 ([1]; 7 μM): 0.8 ± 0.1 (p=0.26); ICa I/I0 ([1]; 7 μM, listed as pin-glycine): 0.8 ± 0.1; Gmax/Gmax0 ([2]; 2 μM): 0.9 ± 0.04; ΔV0.5 (voltage dependence of inactivation) ([2]; 2 μM): -0.3 ± 0.7 mV; INa I/I0 ([2]; 2 μM): 1.0 ± 0.1; Gmax/Gmax0 ([2]; 7 μM): 0.7 ± 0.08; ΔV0.5 (voltage dependence of inactivation) ([2]; 7 μM): –4.7 ± 1.9 mV; Gmax/Gmax0 ([2]; 7 μM, listed as pin-glycine): 0.7 ± 0.1; ΔV0.5 (voltage dependence of inactivation) ([2]; 7 μM, listed as pin-glycine): -4.8 ± 1.9 mV; INa I/I0 ([2]; 7 μM): 0.7 ± 0.1 (p=0.09); INa I/I0 ([2]; 7 μM, listed as pin-glycine): 0.7 ± 0.1; Gmax/Gmax0 ([2]; 20 μM): 0.3 ± 0.1; ΔV0.5 (voltage dependence of inactivation) ([2]; 20 μM): -17.8 ± 4.2 mV; INa I/I0 ([2]; 20 μM): 0.3 ± 0.1"
CCCCC/C=C\C/C=C\CC/C=C\CCCC(=O)NCCS(=O)(=O)O [Pin-taurine],0.9 ± 0.1,2.7 ± 1.9 mV,0.7 ± 0.1,1.0 ± 0.1,3.9 ± 1.9 mV,0.8 ± 0.1,1.0 ± 0.1,3.7 ± 1.8 mV,0.8 ± 0.1,0.8 ± 0.1,4.1 ± 2.2 mV,0.6 ± 0.1,6.0 ± 4.1 mV,0.5 ± 0.1,1.2 ± 0.2,1.6 ± 0.9 mV,1.2 ± 0.1,1.2 ± 0.2,0.9 ± 1.1 mV,1.2 ± 0.1,"ICa I/I0 ([1]; 7 μM): 0.7 ± 0.1 (p=0.02); ICa I/I0 ([1]; 7 μM, listed as pin-taurine): 0.7 ± 0.1; Gmax/Gmax0 ([2]; 2 μM): 1.0 ± 0.1; ΔV0.5 (voltage dependence of inactivation) ([2]; 2 μM): -3.0 ± 1.9 mV; INa I/I0 ([2]; 2 μM): 1.0 ± 0.1; Gmax/Gmax0 ([2]; 7 μM): 0.4 ± 0.09; ΔV0.5 (voltage dependence of inactivation) ([2]; 7 μM): –16 ± 2.7 mV; Gmax/Gmax0 ([2]; 7 μM, listed as pin-taurine): 0.4 ± 0.1; ΔV0.5 (voltage dependence of inactivation) ([2]; 7 μM, listed as pin-taurine): -16.0 ± 2.7 mV; INa I/I0 ([2]; 7 μM): 0.5 ± 0.1 (p=0.01); INa I/I0 ([2]; 7 μM, listed as pin-taurine): 0.5 ± 0.1; Gmax/Gmax0 ([2]; 20 μM): 0.1 ± 0.02; ΔV0.5 (voltage dependence of inactivation) ([2]; 20 μM): -28.1 ± 2.4 mV; INa I/I0 ([2]; 20 μM): 0.2 ± 0.03"
